Data published in US20130252988A1, “COMPOSITIONS AND METHODS FOR TREATING MYELOFIBROSIS” (TARGEGEN, INC., priority 2010, published 2013).
“Also recorded” adds a separate entry of the source. Structures can show the parent of a compound that is named as a salt. Where two headings read alike, the source gives them in different places. Marks after values point to notes of the source that are not given here.

Tested on: subjects with myelofibrosis
Conditions: for Abdominal pain Severity Grade 1-2, subjects n (%) / Abdominal pain Severity Grade 3-4, subjects n (%) / Alanine aminotransferase increased Severity Grade 1-2, subjects n (%) / Alanine aminotransferase increased Severity Grade 3-4, subjects n (%) / Anorexia Severity Grade 1-2, subjects n (%) / Anorexia Severity Grade 3-4, subjects n (%) / Aspartate aminotransferase increased Severity Grade 1-2, subjects n (%) / Aspartate aminotransferase increased Severity Grade 3-4, subjects n (%) / Blood alkaline phosphatase increased Severity Grade 1-2, subjects n (%) / Blood alkaline phosphatase increased Severity Grade 3-4, subjects n (%) / Blood creatinine increased Severity Grade 1-2, subjects n (%) / Blood creatinine increased Severity Grade 3-4, subjects n (%) / Diarrhea Severity Grade 1-2, subjects n (%) / Diarrhea Severity Grade 3-4, subjects n (%) / Dry skin Severity Grade 1-2, subjects n (%) / Dry skin Severity Grade 3-4, subjects n (%) / Edema peripheral Severity Grade 1-2, subjects n (%) / Edema peripheral Severity Grade 3-4, subjects n (%) / Hyperlipasemia Severity Grade 1-2, subjects n (%) / Hyperlipasemia Severity Grade 3-4, subjects n (%) / Hypocalcemia Severity Grade 1-2, subjects n (%) / Hypocalcemia Severity Grade 3-4, subjects n (%) / Nausea Severity Grade 1-2, subjects n (%) / Nausea Severity Grade 3-4, subjects n (%) / Skin exfoliation Severity Grade 1-2, subjects n (%) / Skin exfoliation Severity Grade 3-4, subjects n (%) / Vomiting Severity Grade 1-2, subjects n (%) / Vomiting Severity Grade 3-4, subjects n (%): Table 9: AE at least possibly related to TG101348; for Neutropenia Severity Grade 1-2, subjects n (%) / Neutropenia Severity Grade 3-4, subjects n (%) / Thrombocytopenia Severity Grade 1-2, subjects n (%) / Thrombocytopenia Severity Grade 3-4, subjects n (%) / Anemia Severity Grade 1-2, subjects n (%) / Anemia Severity Grade 3-4, subjects n (%): Table 10: at least possibly related
[1] = Table 5: treatment-emergent non-hematologic laboratory finding, MTD subjects (N = 40)
[2] = All Subjects, not transfusion dependent at study entry (n = 37)
[3] = MTD Cohort, not transfusion dependent at study entry (n = 24)
[4] = overall, at least possibly related
[5] = subject 106-024, 800/680 mg/day, onset day 87, stopped temporarily, Recovered/resolved

Cc1cnc(Nc2ccc(OCCN3CCCC3)cc2)nc1Nc1cccc(S(=O)(=O)NC(C)(C)C)c1 [TG101348, N-tert-butyl-3-[(5-methyl-2-{[4-(2-pyrrolidin-1-ylethoxy)phenyl]amino}pyrimidin-4-yl)amino]benzenesulfonamide dihydrochloride monohydrate]
Hyperkalemia Grade 4, subjects n (%) [1]: 1 (3%)
Hyperlipasemia Grade 2, subjects n (%) [1]: 4 (10%)
Hyperlipasemia Grade 3, subjects n (%) [1]: 3 (8%)
Hyperlipasemia Grade 4, subjects n (%) [1]: 2 (5%)
Hypocalcemia Grade 2, subjects n (%) [1]: 8 (20%)
Hypocalcemia Grade 3, subjects n (%) [1]: 3 (8%)
Hypocalcemia Grade 4, subjects n (%) [1]: 0
Abdominal pain Severity Grade 1-2, subjects n (%) (All Subjects (n = 59)): 6 (10.2%)
Abdominal pain Severity Grade 3-4, subjects n (%) (All Subjects (n = 59)): 0
Alanine aminotransferase increased Severity Grade 1-2, subjects n (%) (All Subjects (n = 59)): 11 (18.6%)
Alanine aminotransferase increased Severity Grade 3-4, subjects n (%) (All Subjects (n = 59)): 4 (6.8%)
Anorexia Severity Grade 1-2, subjects n (%) (All Subjects (n = 59)): 8 (13.6%)
Anorexia Severity Grade 3-4, subjects n (%) (All Subjects (n = 59)): 0
Aspartate aminotransferase increased Severity Grade 1-2, subjects n (%) (All Subjects (n = 59)): 15 (25.4%)
Aspartate aminotransferase increased Severity Grade 3-4, subjects n (%) (All Subjects (n = 59)): 1 (1.7%)
Blood alkaline phosphatase increased Severity Grade 1-2, subjects n (%) (All Subjects (n = 59)): 10 (16.9%)
Blood alkaline phosphatase increased Severity Grade 3-4, subjects n (%) (All Subjects (n = 59)): 0
Blood creatinine increased Severity Grade 1-2, subjects n (%) (All Subjects (n = 59)): 14 (23.7%)
Blood creatinine increased Severity Grade 3-4, subjects n (%) (All Subjects (n = 59)): 0
Diarrhea Severity Grade 1-2, subjects n (%) (All Subjects (n = 59)): 32 (54.2%)
Diarrhea Severity Grade 3-4, subjects n (%) (All Subjects (n = 59)): 6 (10.2%)
Dry skin Severity Grade 1-2, subjects n (%) (All Subjects (n = 59)): 6 (10.2%)
Dry skin Severity Grade 3-4, subjects n (%) (All Subjects (n = 59)): 0
Edema peripheral Severity Grade 1-2, subjects n (%) (All Subjects (n = 59)): 6 (10.2%)
Edema peripheral Severity Grade 3-4, subjects n (%) (All Subjects (n = 59)): 0
Hyperlipasemia Severity Grade 1-2, subjects n (%) (All Subjects (n = 59)): 10 (16.9%)
Hyperlipasemia Severity Grade 3-4, subjects n (%) (All Subjects (n = 59)): 6 (10.2%)
Hypocalcemia Severity Grade 1-2, subjects n (%) (All Subjects (n = 59)): 7 (11.9%)
Hypocalcemia Severity Grade 3-4, subjects n (%) (All Subjects (n = 59)): 1 (1.7%)
Nausea Severity Grade 1-2, subjects n (%) (All Subjects (n = 59)): 39 (66.1%)
Nausea Severity Grade 3-4, subjects n (%) (All Subjects (n = 59)): 2 (3.4%)
Skin exfoliation Severity Grade 1-2, subjects n (%) (All Subjects (n = 59)): 8 (13.6%)
Skin exfoliation Severity Grade 3-4, subjects n (%) (All Subjects (n = 59)): 0
Vomiting Severity Grade 1-2, subjects n (%) (All Subjects (n = 59)): 32 (54.2%)
Vomiting Severity Grade 3-4, subjects n (%) (All Subjects (n = 59)): 2 (3.4%)
Abdominal pain Severity Grade 1-2, subjects n (%) (MTD Cohort (n = 40)): 4 (10.0%)
Abdominal pain Severity Grade 3-4, subjects n (%) (MTD Cohort (n = 40)): 0
Alanine aminotransferase increased Severity Grade 1-2, subjects n (%) (MTD Cohort (n = 40)): 9 (22.5%)
Alanine aminotransferase increased Severity Grade 3-4, subjects n (%) (MTD Cohort (n = 40)): 3 (7.5%)
Anorexia Severity Grade 1-2, subjects n (%) (MTD Cohort (n = 40)): 6 (15.0%)
Anorexia Severity Grade 3-4, subjects n (%) (MTD Cohort (n = 40)): 0
Aspartate aminotransferase increased Severity Grade 1-2, subjects n (%) (MTD Cohort (n = 40)): 13 (32.5%)
Aspartate aminotransferase increased Severity Grade 3-4, subjects n (%) (MTD Cohort (n = 40)): 1 (2.5%)
Blood alkaline phosphatase increased Severity Grade 1-2, subjects n (%) (MTD Cohort (n = 40)): 9 (22.5%)
Blood alkaline phosphatase increased Severity Grade 3-4, subjects n (%) (MTD Cohort (n = 40)): 0
Blood creatinine increased Severity Grade 1-2, subjects n (%) (MTD Cohort (n = 40)): 11 (27.5%)
Blood creatinine increased Severity Grade 3-4, subjects n (%) (MTD Cohort (n = 40)): 0
Diarrhea Severity Grade 1-2, subjects n (%) (MTD Cohort (n = 40)): 25 (62.5%)
Diarrhea Severity Grade 3-4, subjects n (%) (MTD Cohort (n = 40)): 5 (12.5%)
Dry skin Severity Grade 1-2, subjects n (%) (MTD Cohort (n = 40)): 6 (15%)
Dry skin Severity Grade 3-4, subjects n (%) (MTD Cohort (n = 40)): 0
Edema peripheral Severity Grade 1-2, subjects n (%) (MTD Cohort (n = 40)): 4 (10.0%)
Edema peripheral Severity Grade 3-4, subjects n (%) (MTD Cohort (n = 40)): 0
Hyperlipasemia Severity Grade 1-2, subjects n (%) (MTD Cohort (n = 40)): 9 (22.5%)
Hyperlipasemia Severity Grade 3-4, subjects n (%) (MTD Cohort (n = 40)): 6 (15.0%)
Hypocalcemia Severity Grade 1-2, subjects n (%) (MTD Cohort (n = 40)): 6 (15.0%)
Hypocalcemia Severity Grade 3-4, subjects n (%) (MTD Cohort (n = 40)): 1 (2.5%)
Nausea Severity Grade 1-2, subjects n (%) (MTD Cohort (n = 40)): 31 (77.5%)
Nausea Severity Grade 3-4, subjects n (%) (MTD Cohort (n = 40)): 2 (5.0%)
Skin exfoliation Severity Grade 1-2, subjects n (%) (MTD Cohort (n = 40)): 8 (20.0%)
Skin exfoliation Severity Grade 3-4, subjects n (%) (MTD Cohort (n = 40)): 0
Vomiting Severity Grade 1-2, subjects n (%) (MTD Cohort (n = 40)): 27 (67.5%)
Vomiting Severity Grade 3-4, subjects n (%) (MTD Cohort (n = 40)): 1 (2.5%)
Neutropenia Severity Grade 1-2, subjects n (%) (All Subjects (n = 59)): 2 (3.4%)
Neutropenia Severity Grade 3-4, subjects n (%) (All Subjects (n = 59)): 6 (10.2%)
Thrombocytopenia Severity Grade 1-2, subjects n (%) (All Subjects (n = 59)): 10 (17.0%)
Thrombocytopenia Severity Grade 3-4, subjects n (%) (All Subjects (n = 59)): 14 (23.7%)
Anemia Severity Grade 1-2, subjects n (%) [2]: 3 (8.1%)
Anemia Severity Grade 3-4, subjects n (%) [2]: 13 (35.1%)
Neutropenia Severity Grade 1-2, subjects n (%) (MTD Cohort (n = 40)): 2 (5.0%)
Neutropenia Severity Grade 3-4, subjects n (%) (MTD Cohort (n = 40)): 4 (10.0%)
Thrombocytopenia Severity Grade 1-2, subjects n (%) (MTD Cohort (n = 40)): 8 (20.0%)
Thrombocytopenia Severity Grade 3-4, subjects n (%) (MTD Cohort (n = 40)): 11 (27.5%)
Anemia Severity Grade 1-2, subjects n (%) [3]: 2 (8.3%)
Anemia Severity Grade 3-4, subjects n (%) [3]: 13 (54.2%)
Grade 3/4 neutropenia considered related to TG101348, subjects (all subjects): 10%
Grade 3/4 thrombocytopenia considered related to TG101348, subjects (all subjects): 24%
Dose-limiting toxicity (DLT) (at 800 mg/day, dihydrochloride monohydrate): asymptomatic grade 3 or 4 amylasemia/lipasemia that was reversible; also recorded: asymptomatic grade 3 or 4 hyperamylasemia (with or without hyperlipasemia) that was reversible
Safety findings with continued dosing beyond 6 cycles (at data cutoff, extension study): no unique safety findings have emerged
Cytokine rebound upon discontinuation of TG101348 (discontinued without prior dose reduction or tapering, dihydrochloride monohydrate): absence of immediate adverse cytokine-rebound phenomenon; also recorded: did not experience “cytokine rebound”
Discontinuation because of adverse events during the extension study, number of subjects (following a total of 24 to 46 weeks on therapy): 3
Subjects with disease progression (hepatosplenomegaly/ascites, accelerated myelofibrosis, leukemic transformation): Three
Emergence of transfusion requirement, subjects (initiated treatment at 680 mg/day): 72%
Emergence of transfusion requirement, subjects (initiated treatment at 240-520 mg/day): 33%
Grade 3/4 anemia considered related to TG101348, subjects (of 37 subjects not transfusion dependent at baseline): 35%
Maximum tolerated dose (MTD) (oral once daily, dose escalation 30 to 800 mg/day): 680 mg/day
Grades 3/4 asymptomatic increase in ALT, subjects (overall): 7%
Grades 3/4 asymptomatic increase in AST, subjects (overall): 2%
Grades 3/4 asymptomatic increase in serum lipase, subjects (overall): 10%
Grades 3/4 increase in alkaline phosphatase, subjects (overall): 0%
Grades 3/4 increase in creatinine, subjects (overall): 0%
Grade 4 nausea, diarrhea and vomiting (overall and MTD cohort): no Grade 4 events
Grade 3 diarrhea, subjects [4]: 10%
Grade 3 nausea, subjects [4]: 3%
Grade 3 vomiting, subjects [4]: 3%
Tolerability (patients with myelofibrosis, dihydrochloride monohydrate): generally well tolerated
Serious adverse event Neutropenia: CTCAE Severity Grade (subject 101-047, 680/680 mg/day, onset day 52, stopped temporarily, Recovered/resolved): 2
Serious adverse event Depression: CTCAE Severity Grade (subject 104-015, 360/520 mg/day, onset day 256, permanently discontinued, Not recovered/not resolved, died (suicide) approximately 12 weeks after discontinuation): 3*
Serious adverse event Hyperlipasemia: CTCAE Severity Grade (subject 105-013, 240/0 mg/day, onset day 356, action none, Recovered/resolved): 4
Serious adverse event Thrombocytopenia: CTCAE Severity Grade (subject 105-013, 240/360 mg/day, onset day 247, permanently discontinued, Not recovered/not resolved): 4
Serious adverse event Thrombocytopenia: CTCAE Severity Grade (subject 105-013, starting dose/dose at event 240/360 mg/day, onset day 215, action none, Recovered/resolved): 4
Serious adverse event Gallbladder pain: CTCAE Severity Grade (subject 105-056, 680/520 mg/day, onset day 95, stopped temporarily, Recovered/resolved with sequelae): 3
Serious adverse event Cerebrovascular accident: CTCAE Severity Grade (subject 105-056, 680/680 mg/day, onset day 22, stopped temporarily, Recovered/resolved): 4
Serious adverse event Cardiac arrest: CTCAE Severity Grade (subject 105-059, 680/360 mg/day, onset day 42, permanently discontinued, Fatal): 5
Serious adverse event Hyperlipasemia: CTCAE Severity Grade (subject 105-059, 680/520 mg/day, onset day 28, stopped temporarily, Recovered/resolved): 3
Serious adverse event Hyperlipasemia: CTCAE Severity Grade (subject 105-059, 680/680 mg/day, onset day 8, stopped temporarily, Recovered/resolved): 3
Serious adverse event Dehydration: CTCAE Severity Grade (subject 106-024, 800/400 mg/day, onset day 474, action none, Recovered/resolved): 3
Serious adverse event Tumor lysis syndrome: CTCAE Severity Grade (subject 106-024, 800/440 mg/day, onset day 366, stopped temporarily, Recovered/resolved): 3
Serious adverse event Dehydration: CTCAE Severity Grade [5]: 2
Serious adverse event Diarrhea: CTCAE Severity Grade [5]: 3
Serious adverse event Nausea: CTCAE Severity Grade [5]: 2
Serious adverse event Vomiting: CTCAE Severity Grade [5]: 2
Serious adverse event Pleuritic pain: CTCAE Severity Grade (subject 106-033, 680/680 mg/day, onset day 8, stopped temporarily, Recovered/resolved): 2
Serious adverse event Dehydration: CTCAE Severity Grade (subject 106-045, 680/440 mg/day, onset day 170, stopped temporarily, Recovered/resolved): 3
